In US8476265B2, “Compounds-801” (AstraZeneca AB, priority 2010, dated 2013):

What was measured:
[1] = target: T1, human muscarinic acetylcholine M3 receptor (Homo sapiens, UniProt P20309); test: Muscarinic 3 receptor binding assay ([3H]NMS competition, SPA), pIC50; details: [3H]NMS 0.1 nM, CHO-K1 cell membranes expressing human M3 receptor
T1 construct: expressed in transfected cells; host or cells: CHO-K1 (Chinese Hamster Ovary) cell membranes
Procedure, shortened: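 SPA beads precoated with human M3-expressing CHO-K1 membranes were incubated 16 h at room temperature with serially diluted compound and 0.1 nM [3H]NMS (pH 7.4 HEPES buffer, MgCl2, BSA, 1% DMSO). Atropine (1 μM) defined non-specific binding; pIC50 is the 50% reduction in specific binding.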

Adrenergic β2 [2] = target: T2, Adrenergic β2 (Homo sapiens, UniProt P07550); test: Adrenergic β2 mediated cAMP production in H292 cells, single concentration 1 μM; format: cell-based; details: NCI-H292, 1 μM compound, cAMP as percentage of the maximum response generated by 1E-07M formoterol, read-out: β2 % effect @1 uM
T2 construct: Adherent H292 cells are removed from tissue culture flasks by treatment with Accutase™ cell detachment solution; endogenous in cells; host or cells: H292 cells
Procedure, shortened: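 H292 cells pretreated with rolipram (300 μM final) 10 min, then compound at 1 μM final, 1% DMSO, 60 min at room temperature in HBSS/10 mM HEPES pH 7.4/5 mM glucose. Lysate cAMP quantified by AlphaScreen against a standard curve, as % of maximal response to 1E-07M formoterol.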

[3] = target: T1, human muscarinic acetylcholine M3 receptor; test: Muscarinic 3 receptor binding assay ([3H]NMS competition, SPA), single concentration 1 μM; details: 1 μM compound; % inhibition specific [3H]-NMS binding
Procedure, shortened: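 CHO-K1 membranes expressing human M3 on SPA beads, competition with 0.1 nM [3H]NMS (quarter Kd) in 20 mM HEPES pH 7.4, 5 mM MgCl2, 0.1% BSA, 1% DMSO; compound at 1 μM. 16 h at room temperature. Value is % inhibition of specific binding, non-specific defined with 1 μM atropine.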

Adrenergic β2 [4] = target: T2, Adrenergic β2; test: Adrenergic β2 mediated cAMP production in H292 cells (AlphaScreen), concentration response; format: cell-based; details: for EC50: 60 min, 300 μM rolipram, read-out: β2 pEC50 (converted); for β2 Intrinsic Activity: fraction relative to the maximum activity determined for formoterol
Procedure, shortened: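 Intracellular cAMP in lysates read by AlphaScreen, calibrated with cAMP standards; curves fitted for pEC50, with intrinsic activity as a fraction of formoterol's maximum. Agonist exposure 60 min at room temperature after 10 min rolipram (300 μM final), 1% DMSO, HEPES-buffered HBSS pH 7.4.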

T2 sequence (P07550 whole entry): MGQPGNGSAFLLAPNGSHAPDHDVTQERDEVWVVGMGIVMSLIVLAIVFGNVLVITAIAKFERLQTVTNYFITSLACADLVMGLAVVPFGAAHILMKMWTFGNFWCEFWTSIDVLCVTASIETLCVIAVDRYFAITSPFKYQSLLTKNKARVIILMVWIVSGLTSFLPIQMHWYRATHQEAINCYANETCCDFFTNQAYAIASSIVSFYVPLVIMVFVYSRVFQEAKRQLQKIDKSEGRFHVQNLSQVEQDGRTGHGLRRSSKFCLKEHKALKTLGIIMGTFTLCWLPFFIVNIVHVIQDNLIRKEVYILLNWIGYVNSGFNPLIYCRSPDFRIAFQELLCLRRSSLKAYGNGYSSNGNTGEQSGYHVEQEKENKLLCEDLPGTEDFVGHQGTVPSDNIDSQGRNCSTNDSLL
T1 sequence (P20309 whole entry): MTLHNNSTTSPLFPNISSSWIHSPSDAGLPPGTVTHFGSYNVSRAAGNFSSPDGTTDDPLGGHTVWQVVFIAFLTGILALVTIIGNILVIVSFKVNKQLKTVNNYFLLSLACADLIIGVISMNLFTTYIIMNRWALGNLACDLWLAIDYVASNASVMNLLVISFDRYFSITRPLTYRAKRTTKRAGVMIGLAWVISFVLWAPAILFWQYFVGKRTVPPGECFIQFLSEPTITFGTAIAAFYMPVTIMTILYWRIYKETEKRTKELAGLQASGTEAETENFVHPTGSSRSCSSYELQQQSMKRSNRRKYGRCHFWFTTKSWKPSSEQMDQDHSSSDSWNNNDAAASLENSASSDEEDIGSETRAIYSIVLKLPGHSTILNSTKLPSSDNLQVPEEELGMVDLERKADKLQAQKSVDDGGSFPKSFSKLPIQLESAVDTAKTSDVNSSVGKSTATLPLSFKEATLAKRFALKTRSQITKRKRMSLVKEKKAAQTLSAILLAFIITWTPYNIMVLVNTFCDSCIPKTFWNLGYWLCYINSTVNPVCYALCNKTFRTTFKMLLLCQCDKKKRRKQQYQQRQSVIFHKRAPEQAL

| Compound | IC50 [1] [nM] | percent of formoterol maximum response at 1 µM (Adrenergic β2 [2]) [%] | inhibition at 1 µM [3] [%] | EC50 (Adrenergic β2 [4]) [nM] | β2 Intrinsic Activity (Adrenergic β2 [4]) |
| --- | --- | --- | --- | --- | --- |
| O=C1COc2c(CCNCCN(C(=O)CCOCCc3cccc(CN4CCC5(CC4)CN(C(=O)C(O)c4ccccc4Cl)CCO5)c3)C3CCCCC3)ccc(O)c2N1 (centres unmarked) [Example 128, 3-(3-((4-(2-(2-Chlorophenyl)-2-hydroxyacetyl)-1-oxa-4,9-diazaspiro[5.5]undecan-9-yl)methyl)phenethoxy)-N-cyclohexyl-N-(2-(2-(5-hydroxy-3-oxo-3,4-dihydro-2H-benzo[b][1,4]oxazin-8-yl)ethylamino)ethyl)propanamide] | 1 | 125 | 99 |  |  |
| Cc1ccn2cc(C(=O)N3CCOC4(CCN(Cc5cccc(CCOCCC(=O)N(CCNCCc6ccc(O)c7c6OCC(=O)N7)C6CCCCC6)c5)CC4)C3)nc2c1 [Example 150, N-Cyclohexyl-N-(2-(2-(5-hydroxy-3-oxo-3,4-dihydro-2H-benzo[b][1,4]oxazin-8-yl)ethylamino)ethyl)-3-(3-((4-(7-methylimidazo[1,2-a]pyridine-2-carbonyl)-1-oxa-4,9-diazaspiro[5.5]undecan-9-yl)methyl)phenethoxy)propanamide] | 3.16 | 104 | 99 | 79.4 | 0.5 |
| O=C1COc2c(CCNCCN(C(=O)CCOCCc3cccc(CN4CCC5(CC4)CN(C(=O)C4COc6ccccc6O4)CCO5)c3)C3CCCCC3)ccc(O)c2N1 (centres unmarked) [Example 115, N-Cyclohexyl-3-(3-((4-(2,3-dihydrobenzo[b][1,4]dioxine-2-carbonyl)-1-oxa-4,9-diazaspiro[5.5]undecan-9-yl)methyl)phenethoxy)-N-(2-(2-(5-hydroxy-3-oxo-3,4-dihydro-2H-benzo[b][1,4]oxazin-8-yl)ethylamino)ethyl)propanamide] | 0.158 | 93 | 100 | 126 | 0.6 |
| O=C1COc2c(CCNCCN(C(=O)CCOCCc3cccc(CN4CCC5(CC4)CN(C(=O)c4csc(CC(F)(F)F)n4)CCO5)c3)C3CCCCC3)ccc(O)c2N1 [Example 174, N-Cyclohexyl-N-(2-(2-(5-hydroxy-3-oxo-3,4-dihydro-2H-benzo[b][1,4]oxazin-8-yl)ethylamino)ethyl)-3-(3-((4-(2-(2,2,2-trifluoroethyl)thiazole-4-carbonyl)-1-oxa-4,9-diazaspiro[5.5]undecan-9-yl)methyl)phenethoxy)propanamide] | 0.251 | 88 | 100 | 50.1 | 1.0 |
| COC(C(=O)N1CCOC2(CCN(Cc3cccc(CCOCCC(=O)N(CCNCCc4ccc(O)c5c4OCC(=O)N5)C4CCCCC4)c3)CC2)C1)c1ccccc1 (centres unmarked) [Example 171, N-Cyclohexyl-N-(2-(2-(5-hydroxy-3-oxo-3,4-dihydro-2H-benzo[b][1,4]oxazin-8-yl)ethylamino)ethyl)-3-(3-((4-(2-methoxy-2-phenylacetyl)-1-oxa-4,9-diazaspiro[5.5]undecan-9-yl)methyl)phenethoxy)propanamide] |  | 94 | 96 |  |  |
| O=C1COc2c(CCNCCN(C(=O)CCOCCc3cccc(CN4CCC5(CC4)CN(C(=O)C(O)C(F)(F)F)CCO5)c3)C3CCCCC3)ccc(O)c2N1 (centres unmarked) [Example 152, N-Cyclohexyl-N-(2-(2-(5-hydroxy-3-oxo-3,4-dihydro-2H-benzo[b][1,4]oxazin-8-yl)ethylamino)ethyl)-3-(3-((4-(3,3,3-trifluoro-2-hydroxypropanoyl)-1-oxa-4,9-diazaspiro[5.5]undecan-9-yl)methyl)phenethoxy)propanamide] |  | 112 | 100 |  |  |

Continued, values first:

| IC50 [1] [nM] | percent of formoterol maximum response at 1 µM (Adrenergic β2 [2]) [%] | inhibition at 1 µM [3] [%] | EC50 (Adrenergic β2 [4]) [nM] | β2 Intrinsic Activity (Adrenergic β2 [4]) | Compound |
| --- | --- | --- | --- | --- | --- |
| 0.501 | 97 | 100 | 39.8 | 1.0 | O=C1COc2c(CCNCCN(C(=O)CCOCCc3cccc(CN4CCC5(CC4)CN(C(=O)c4ccc6cccnc6n4)CCO5)c3)C3CCCCC3)ccc(O)c2N1 [Example 161, 3-(3-((4-(1,8-Naphthyridine-2-carbonyl)-1-oxa-4,9-diazaspiro[5.5]undecan-9-yl)methyl)phenethoxy)-N-cyclohexyl-N-(2-(2-(5-hydroxy-3-oxo-3,4-dihydro-2H-benzo[b][1,4]oxazin-8-yl)ethylamino)ethyl)propanamide] |
| 0.316 | 105 | 101 | 100 | 0.4 | O=C1COc2c(CCNCCN(C(=O)CCOCCc3cccc(CN4CCC5(CC4)CN(C(=O)[C@@H]4C[C@H]4c4ccccc4)CCO5)c3)C3CCCCC3)ccc(O)c2N1 [Example 167, N-Cyclohexyl-N-(2-(2-(5-hydroxy-3-oxo-3,4-dihydro-2H-benzo[b][1,4]oxazin-8-yl)ethylamino)ethyl)-3-(3-((4-((1R,2R)-2-phenylcyclopropanecarbonyl)-1-oxa-4,9-diazaspiro[5.5]undecan-9-yl)methyl)phenethoxy)propanamide] |
| 1 | 99 | 100 | 79.4 | 1.1 | O=C1COc2c(CCNCCN(C(=O)CCOCCc3cccc(CN4CCC5(CC4)CN(C(=O)CCOc4ccccc4)CCO5)c3)C3CCCCC3)ccc(O)c2N1 [Example 165, N-Cyclohexyl-N-(2-(2-(5-hydroxy-3-oxo-3,4-dihydro-2H-benzo[b][1,4]oxazin-8-yl)ethylamino)ethyl)-3-(3-((4-(3-phenoxypropanoyl)-1-oxa-4,9-diazaspiro[5.5]undecan-9-yl)methyl)phenethoxy)propanamide] |
|  | 99 | 100 |  |  | O=C1COc2c(CCNCCN(C(=O)CCOCCc3cccc(CN4CCC5(CC4)CN(C(=O)c4cccc(F)c4F)CCO5)c3)C3CCCCC3)ccc(O)c2N1 [Example 110, N-Cyclohexyl-3-(3-((4-(2,3-difluorobenzoyl)-1-oxa-4,9-diazaspiro[5.5]undecan-9-yl)methyl)phenethoxy)-N-(2-(2-(5-hydroxy-3-oxo-3,4-dihydro-2H-benzo[b][1,4]oxazin-8-yl)ethylamino)ethyl)propanamide] |
|  | 86 | 93 |  |  | N#Cc1ccc(C(=O)N2CCOC3(CCN(Cc4cccc(CCOCCC(=O)N(CCNCCc5ccc(O)c6c5OCC(=O)N6)C5CCCCC5)c4)CC3)C2)cc1 [Example 156, 3-(3-((4-(4-Cyanobenzoyl)-1-oxa-4,9-diazaspiro[5.5]undecan-9-yl)methyl)phenethoxy)-N-cyclohexyl-N-(2-(2-(5-hydroxy-3-oxo-3,4-dihydro-2H-benzo[b][1,4]oxazin-8-yl)ethylamino)ethyl)propanamide] |
|  | 97 | 101 |  |  | O=C1COc2c(CCNCCN(C(=O)CCOCCc3cccc(CN4CCC5(CC4)CN(C(=O)c4n[nH]c6ccccc46)CCO5)c3)C3CCCCC3)ccc(O)c2N1 [Example 120, 3-(3-((4-(1H-Indazole-3-carbonyl)-1-oxa-4,9-diazaspiro[5.5]undecan-9-yl)methyl)phenethoxy)-N-cyclohexyl-N-(2-(2-(5-hydroxy-3-oxo-3,4-dihydro-2H-benzo[b][1,4]oxazin-8-yl)ethylamino)ethyl)propanamide] |
|  | 109 | 90 |  |  | O=C1COc2c(CCNCCN(C(=O)CCOCCc3cccc(CN4CCC5(CC4)CN(C(=O)CCc4nc6ccccc6[nH]4)CCO5)c3)C3CCCCC3)ccc(O)c2N1 [Example 103, 3-(3-((4-(3-(1H-Benzo[d]imidazol-2-yl)propanoyl)-1-oxa-4,9-diazaspiro[5.5]undecan-9-yl)methyl)phenethoxy)-N-cyclohexyl-N-(2-(2-(5-hydroxy-3-oxo-3,4-dihydro-2H-benzo[b][1,4]oxazin-8-yl)ethylamino)ethyl)propanamide] |
|  | 112 | 99 |  |  | O=C1COc2c(CCNCCN(C(=O)CCOCCc3cccc(CN4CCC5(CC4)CN(C(=O)c4cnc6ccccc6c4)CCO5)c3)C3CCCCC3)ccc(O)c2N1 [Example 99, N-Cyclohexyl-N-(2-(2-(5-hydroxy-3-oxo-3,4-dihydro-2H-benzo[b][1,4]oxazin-8-yl)ethylamino)ethyl)-3-(3-((4-(quinoline-3-carbonyl)-1-oxa-4,9-diazaspiro[5.5]undecan-9-yl)methyl)phenethoxy)propanamide] |
